These results are taken from patent US11091497B2, “Pyrano[3,4-b]pyrazine kappa opioid receptor ligands for treating addiction, pruritus, pain, and inflammation” (The Rockefeller University, priority 2017, dated 2021).

The assay deals with T1, human kappa opioid receptors (Homo sapiens, UniProt P41145).
T1 construct: expressed in transfected cells; host or cells: U2OS
In words: [35S]GTPγS stimulation, membranes from U2OS cells. The class given is biochemical. Particulars: for Emax: read-out: GTPγS stimulation % efficacy. For orientation: Binding of GTPγS marks nucleotide exchange on a G protein.

T1 sequence (P41145 whole entry): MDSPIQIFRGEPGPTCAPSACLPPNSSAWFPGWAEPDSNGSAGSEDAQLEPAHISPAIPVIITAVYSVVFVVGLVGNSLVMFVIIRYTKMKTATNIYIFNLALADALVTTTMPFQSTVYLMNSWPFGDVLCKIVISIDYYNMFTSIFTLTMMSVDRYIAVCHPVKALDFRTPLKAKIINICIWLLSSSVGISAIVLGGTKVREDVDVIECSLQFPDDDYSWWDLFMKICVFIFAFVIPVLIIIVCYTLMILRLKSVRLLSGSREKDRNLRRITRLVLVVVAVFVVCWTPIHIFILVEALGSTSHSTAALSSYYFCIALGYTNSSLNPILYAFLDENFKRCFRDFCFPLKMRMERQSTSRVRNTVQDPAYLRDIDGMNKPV

What is called EC50 is the concentration giving half of the maximal effect. `O=C(Cc1ccc(Cl)c(Cl)c1)N1CCN[C@@H]2COC[C@H](N3CCCC3)[C@H]21` (racemic) [Example 5A22, 1-[8-pyrrolidin-1-yl-2,3,4,4a,5,7,8,8a-octahydropyrano(3,4-b)pyrazin-1-yl]-2-(3,4-dichlorophenyl)ethanone]: the EC50 was found to be 63 nM and the Emax turned out to be 96%.

With `CN1CCN(C(=O)Cc2ccc(Cl)c(Cl)c2)[C@H]2[C@H]1COC[C@@H]2N1CCCC1` (racemic) [Example 5A23, 1-[4-methyl-8-pyrrolidin-1-yl-3,4a,5,7,8,8a-hexahydro-2H- -pyrano(3,4-b)pyrazin-1-yl]-2-(3,4-dichlorophenyl)ethanone], the EC50 is 46 nM and the Emax came to 76%.
